Source: paper PMC8053501 (Diabetes, Metabolic Syndrome and Obesity: Targets and …, 2021)
“Also recorded” adds a separate entry of the source. Like-named read-outs stand apart in the source and are kept apart here.

Assays:
[1] = test system: diabetes mellitus patients; test: Acute kidney injury; format: in vivo, human; conditions: for Association with AKI, Unadjusted (95% CI) / Association with AKI, Adjusted (95% CI): metformin as reference; for Association with AKI, Adjusted (95% CI): multivariate; for Events During the 90 days (AKI): primary endpoint, first 90 days, patients above 55 years; for Total endpoint (AKI events): primary plus secondary endpoint; for Events at secondary end (AKI): secondary endpoint, after 90 days of hospital admission; for Total Percent (incidence rate of AKI at the end of the study): share of the 4966 total outcomes
[2] = for Drug concentration, time course: normal mice, oral gavage, 3mg/kg
in vivo = conditions: male, ICR, mouse, po; for Cmax / half-life: oral gavage; for half-life: t1/2, mouse
[3] = Endpoint Diagnosis with 1047 Outcome
[4] = Secondary Diagnosis with 3919 Outcomes

COc1ccc2c(c1)c(CC(=O)O)c(C)n2C(=O)c1ccc(Cl)cc1 [Indomethacin, indomethacin]
Association with AKI, Unadjusted (95% CI) [1, 3]: 2.81 (2.32–2.94) | Association with AKI, Adjusted (95% CI) [1, 3]: 2.29 (2.05–2.65) | Association with AKI, Unadjusted (95% CI) [1, 4]: 2.45(2.09–2.54) | Association with AKI, Adjusted (95% CI) [1, 4]: 2.63 (2.41–2.72) | Association with AKI compared to control drug metformin, in words ([1]; multivariate analysis): increased rate of AKI; also recorded: higher risk for AKI | Events During the 90 days (AKI) [1]: 106 | Total endpoint (AKI events) [1]: 497 | Events at secondary end (AKI) [1]: 391 | Total Percent (incidence rate of AKI at the end of the study) [1]: 10.01% | Tmax determined from the drug concentration in kidney and plasma (and liver) ([2]; mouse, tissue not separated): 1 h | Drug concentration, time course ([2]; Kidney, 0h): 0 | Drug concentration, time course ([2]; Kidney, 3h): 8240 | Drug concentration, time course ([2]; Kidney, 6h): 5200 | Drug concentration, time course ([2]; Kidney, 9h): 3880 | Drug concentration, time course ([2]; Kidney, 12h): 700 | Drug concentration, time course ([2]; Kidney, 15h): 250 | Drug concentration, time course ([2]; Kidney, 18h): 0 | Drug concentration, time course ([2]; Kidney, 21h): 0 | Drug concentration, time course ([2]; Kidney, 24h): 0 | Drug concentration, time course ([2]; Liver, 0h): 0 | Drug concentration, time course ([2]; Liver, 3h): 10,300 | Drug concentration, time course ([2]; Liver, 6h): 8700 | Drug concentration, time course ([2]; Liver, 9h): 5400 | Drug concentration, time course ([2]; Liver, 12h): 1200 | Drug concentration, time course ([2]; Liver, 15h): 150 | Drug concentration, time course ([2]; Liver, 18h): 0 | Drug concentration, time course ([2]; Liver, 21h): 0 | Drug concentration, time course ([2]; Liver, 24h): 0 | Drug concentration, time course ([2]; Plasma, 0h): 0 | Drug concentration, time course ([2]; Plasma, 3h): 300 | Drug concentration, time course ([2]; Plasma, 6h): 100 | Drug concentration, time course ([2]; Plasma, 9h): 50 | Drug concentration, time course ([2]; Plasma, 12h): 0 | Drug concentration, time course ([2]; Plasma, 15h): 0 | Drug concentration, time course ([2]; Plasma, 18h): 0 | Drug concentration, time course ([2]; Plasma, 21h): 0 | Drug concentration, time course ([2]; Plasma, 24h): 0 | Tmax (in vivo; 3 mg/kg): 1 h | Cmax (in vivo; 3 mg/kg, Kidney): 10300 ng/mL | Cmax (in vivo; 3 mg/kg, Liver): 9650 ng/mL | Cmax (in vivo; 3 mg/kg, Plasma): 1170 ng/mL | half-life (in vivo; 3 mg/kg, Kidney): 3.8 h | half-life (in vivo; 3 mg/kg, Liver): 3.1 h | half-life (in vivo; 3 mg/kg, Plasma): 2.7 h

OC[C@H]1O[C@@H](c2ccc(F)c(Cc3cc4ccccc4s3)c2)[C@H](O)[C@@H](O)[C@@H]1O [Ipragliflozin, ipragliflozin]
Association with AKI, Unadjusted (95% CI) [1, 3]: 0.78 (0.61–1.08) | Association with AKI, Adjusted (95% CI) [1, 3]: 0.86 (0.69–1.31) | Association with AKI, Unadjusted (95% CI) [1, 4]: 0.84 (0.69–1.16) | Association with AKI, Adjusted (95% CI) [1, 4]: 0.95 (0.62–1.45) | Events During the 90 days (AKI) [1]: 58 | Total endpoint (AKI events) [1]: 269 | Events at secondary end (AKI) [1]: 211 | Total Percent (incidence rate of AKI at the end of the study) [1]: 5.42% | Drug concentration, time course ([2]; Kidney, 0h): 0 | Drug concentration, time course ([2]; Kidney, 3h): 16,700 | Drug concentration, time course ([2]; Kidney, 6h): 14,500 | Drug concentration, time course ([2]; Kidney, 9h): 8000 | Drug concentration, time course ([2]; Kidney, 12h): 4500 | Drug concentration, time course ([2]; Kidney, 15h): 3000 | Drug concentration, time course ([2]; Kidney, 18h): 1500 | Drug concentration, time course ([2]; Kidney, 21h): 1000 | Drug concentration, time course ([2]; Kidney, 24h): 850 | Drug concentration, time course ([2]; Liver, 0h): 0 | Drug concentration, time course ([2]; Liver, 3h): 7500 | Drug concentration, time course ([2]; Liver, 6h): 6000 | Drug concentration, time course ([2]; Liver, 9h): 1200 | Drug concentration, time course ([2]; Liver, 12h): 300 | Drug concentration, time course ([2]; Liver, 15h): 50 | Drug concentration, time course ([2]; Liver, 18h): 0 | Drug concentration, time course ([2]; Liver, 21h): 0 | Drug concentration, time course ([2]; Liver, 24h): 0 | Drug concentration, time course ([2]; Plasma, 0h): 0 | Drug concentration, time course ([2]; Plasma, 3h): 300 | Drug concentration, time course ([2]; Plasma, 6h): 250 | Drug concentration, time course ([2]; Plasma, 9h): 30 | Drug concentration, time course ([2]; Plasma, 12h): 0 | Drug concentration, time course ([2]; Plasma, 15h): 0 | Drug concentration, time course ([2]; Plasma, 18h): 0 | Drug concentration, time course ([2]; Plasma, 21h): 0 | Drug concentration, time course ([2]; Plasma, 24h): 0 | Tmax (in vivo): 0.5 h | Tmax (in vivo; 3 mg/kg): 0.5 h | Cmax (in vivo; 3 mg/kg, Kidney): 4140 ng/mL | Cmax (in vivo; 3 mg/kg, Liver): 3040 ng/mL | Cmax (in vivo; 3 mg/kg, Plasma): 975 ng/mL | half-life (in vivo; 3 mg/kg, Kidney): 2.3 h | half-life (in vivo; 3 mg/kg, Liver): 1.5 h | half-life (in vivo; 3 mg/kg, Plasma): 1.6 h

OC[C@H]1O[C@@H](c2ccc(Cl)c(Cc3ccc(O[C@H]4CCOC4)cc3)c2)[C@H](O)[C@@H](O)[C@@H]1O [Jardiance]
Association with AKI, Unadjusted (95% CI) [1, 3]: 0.87 (0.69–1.12) | Association with AKI, Adjusted (95% CI) [1, 3]: 0.76 (0.58–1.18) | Association with AKI, Unadjusted (95% CI) [1, 4]: 0.83 (0.68–1.14) | Association with AKI, Adjusted (95% CI) [1, 4]: 0.85 (0.67–1.18) | Events During the 90 days (AKI) [1]: 57 | Total endpoint (AKI events) [1]: 277 | Events at secondary end (AKI) [1]: 220 | Total Percent (incidence rate of AKI at the end of the study) [1]: 5.58% | Drug concentration, time course ([2]; Kidney, 0h): 0 | Drug concentration, time course ([2]; Kidney, 3h): 1800 | Drug concentration, time course ([2]; Kidney, 6h): 1200 | Drug concentration, time course ([2]; Kidney, 9h): 550 | Drug concentration, time course ([2]; Kidney, 12h): 100 | Drug concentration, time course ([2]; Kidney, 15h): 0 | Drug concentration, time course ([2]; Kidney, 18h): 0 | Drug concentration, time course ([2]; Kidney, 21h): 0 | Drug concentration, time course ([2]; Kidney, 24h): 0 | Drug concentration, time course ([2]; Liver, 0h): 0 | Drug concentration, time course ([2]; Liver, 3h): 1100 | Drug concentration, time course ([2]; Liver, 6h): 850 | Drug concentration, time course ([2]; Liver, 9h): 400 | Drug concentration, time course ([2]; Liver, 12h): 50 | Drug concentration, time course ([2]; Liver, 15h): 0 | Drug concentration, time course ([2]; Liver, 18h): 0 | Drug concentration, time course ([2]; Liver, 21h): 0 | Drug concentration, time course ([2]; Liver, 24h): 0 | Drug concentration, time course ([2]; Plasma, 0h): 0 | Drug concentration, time course ([2]; Plasma, 3h): 500 | Drug concentration, time course ([2]; Plasma, 6h): 450 | Drug concentration, time course ([2]; Plasma, 9h): 200 | Drug concentration, time course ([2]; Plasma, 12h): 0 | Drug concentration, time course ([2]; Plasma, 15h): 0 | Drug concentration, time course ([2]; Plasma, 18h): 0 | Drug concentration, time course ([2]; Plasma, 21h): 0 | Drug concentration, time course ([2]; Plasma, 24h): 0 | Tmax (in vivo): 1 h | Tmax (in vivo; 3 mg/kg): 1 h | Cmax (in vivo; 3 mg/kg, Kidney): 1740 ng/mL | Cmax (in vivo; 3 mg/kg, Liver): 1150 ng/mL | Cmax (in vivo; 3 mg/kg, Plasma): 412 ng/mL | half-life (in vivo; 3 mg/kg, Kidney): 2.1 h | half-life (in vivo; 3 mg/kg, Liver): 2.2 h | half-life (in vivo; 3 mg/kg, Plasma): 1.8 h

CC#CCn1c(N2CCC[C@@H](N)C2)nc2c1c(=O)n(Cc1nc(C)c3ccccc3n1)c(=O)n2C [Linagliptin, linagliptin]
Association with AKI, Unadjusted (95% CI) [1, 3]: 0.97 (0.68–1.32) | Association with AKI, Adjusted (95% CI) [1, 3]: 0.86 (0.72–1.46) | Association with AKI, Unadjusted (95% CI) [1, 4]: 0.87 (0.72–1.21) | Association with AKI, Adjusted (95% CI) [1, 4]: 1.23 (0.73–1.65) | Events During the 90 days (AKI) [1]: 56 | Total endpoint (AKI events) [1]: 284 | Events at secondary end (AKI) [1]: 228 | Total Percent (incidence rate of AKI at the end of the study) [1]: 5.72% | Drug concentration, time course ([2]; Kidney, 0h): 0 | Drug concentration, time course ([2]; Kidney, 3h): 18,500 | Drug concentration, time course ([2]; Kidney, 6h): 12,800 | Drug concentration, time course ([2]; Kidney, 9h): 9500 | Drug concentration, time course ([2]; Kidney, 12h): 5400 | Drug concentration, time course ([2]; Kidney, 15h): 2500 | Drug concentration, time course ([2]; Kidney, 18h): 500 | Drug concentration, time course ([2]; Kidney, 21h): 0 | Drug concentration, time course ([2]; Kidney, 24h): 0 | Drug concentration, time course ([2]; Liver, 0h): 0 | Drug concentration, time course ([2]; Liver, 3h): 7500 | Drug concentration, time course ([2]; Liver, 6h): 6000 | Drug concentration, time course ([2]; Liver, 9h): 1200 | Drug concentration, time course ([2]; Liver, 12h): 300 | Drug concentration, time course ([2]; Liver, 15h): 50 | Drug concentration, time course ([2]; Liver, 18h): 0 | Drug concentration, time course ([2]; Liver, 21h): 0 | Drug concentration, time course ([2]; Liver, 24h): 0 | Drug concentration, time course ([2]; Plasma, 0h): 0 | Drug concentration, time course ([2]; Plasma, 3h): 450 | Drug concentration, time course ([2]; Plasma, 6h): 310 | Drug concentration, time course ([2]; Plasma, 9h): 50 | Drug concentration, time course ([2]; Plasma, 12h): 0 | Drug concentration, time course ([2]; Plasma, 15h): 0 | Drug concentration, time course ([2]; Plasma, 18h): 0 | Drug concentration, time course ([2]; Plasma, 21h): 0 | Drug concentration, time course ([2]; Plasma, 24h): 0 | Tmax (in vivo): 1 h | Tmax (in vivo; 3 mg/kg): 1 h | Cmax (in vivo; 3 mg/kg, Kidney): 6440 ng/mL | Cmax (in vivo; 3 mg/kg, Liver): 5050 ng/mL | Cmax (in vivo; 3 mg/kg, Plasma): 578 ng/mL | half-life (in vivo; 3 mg/kg, Kidney): 3.7 h | half-life (in vivo; 3 mg/kg, Liver): 2.8 h | half-life (in vivo; 3 mg/kg, Plasma): 2.6 h
